# pIC50: −log10 of the molar value. Read-outs that look alike come from different tables or passages of the source.
# What was measured:
# Map/Erk kinase (MEK) = details: cited from earlier work
# [1] = test system: PANC-1 pancreatic cancer cells; assay: PANC-1 cell growth, alone or in combination with SN-38 (CellTiter-Glo)
# Experimental: To determine whether compounds 091 or 106 in combination with SN-38 would enhance the anticancer activity of chemotherapy due to MEKK1 inhibition, PANC-1 human pancreatic cancer cells were examined.
# Antiproliferative effects of SN-38 were evaluated in PANC-1 pancreatic cancer cells in combination with compound 091 or 106. Cultured human cancer cells were placed into 96-well plates and grown in the absence or continuous presence of 0.03-1000 nM SN-38 for 96 h with or without 1 μM of test compound. Cell growth was assessed using CellTiter-Glo® Luminescent Cell Viability Assay (Promega). IC50 values were determined as the concentration of a substance which inhibits cell growth by 50% compared to untreated cell populations.
# [2] = test system: Cell lines which carried a B-RAF V600E mutation; assay: Cell growth inhibition in solid cancer cell lines (CellTiter-Glo or methylene blue); format: cell-based; details: 96 hours, B-RAF V600E mutated cell lines very sensitive
# Experimental: Compounds 091 and 106, were extensively tested in solid cancer cell lines (shown in FIG. 3 for 18 cell lines for compound 091 and 20 cell lines for compound 106). […] Cell growth was assessed using a CellTiter-Glo® Luminescent Cell Viability Assay (Promega) or a methylene blue assay.
# MEK1 = MEK1 (Homo sapiens, UniProt Q02750); assay: Biochemical MEK1 assay (ELISA, ERK2-coated plate); details: 1 μmol/L ATP
# Chain of MEK1 (Q02750 whole entry): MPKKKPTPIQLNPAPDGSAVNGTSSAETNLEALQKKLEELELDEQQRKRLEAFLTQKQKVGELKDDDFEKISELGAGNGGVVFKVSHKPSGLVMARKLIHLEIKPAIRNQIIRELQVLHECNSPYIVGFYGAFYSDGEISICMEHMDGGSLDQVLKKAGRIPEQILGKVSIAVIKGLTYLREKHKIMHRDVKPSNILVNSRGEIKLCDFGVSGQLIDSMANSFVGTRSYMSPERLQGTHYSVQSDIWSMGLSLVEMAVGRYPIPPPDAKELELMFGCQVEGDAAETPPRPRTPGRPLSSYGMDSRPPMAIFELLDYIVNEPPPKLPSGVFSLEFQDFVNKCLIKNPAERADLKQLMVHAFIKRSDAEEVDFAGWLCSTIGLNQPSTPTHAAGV
# Experimental: A biochemical MEK1 assay was carried out to investigate whether compounds of formula (I) or (II), e.g., compounds 029, 091, 106 and 114 are MEK1 inhibitors. Biochemical MEK1 inhibition of the compounds was assessed using an ELISA assay. All assays were performed in a 96 well format. A plate coated with ERK2, a substrate protein for MEK1 was used for biochemical MEK1 assay. In a final volume of 40 μL, MEK1 (25 ng) was incubated with 50 mmol/L HEPES, 20 mmol/L MgCl2, 4 mmol/L MnCl2, and 0.5 mmol/L Na3VO4 in the absence or presence of the test compounds. The reaction was initiated by the addition of 1 μmol/L ATP. After incubation for 40 minutes at 30° C., the reaction mixture was discarded and the plate was then washed 4 times with 0.05% Tween20/PBS. Each well was incubated with 100 μL of 1:4000 diluted phospho-ERK1/2 monoclonal antibody (Cell Signaling, MA) for 1.5 hours at room temperature. The antibody was then discarded and the plate was washed 6 times with 0.05% Tween20/PBS. Finally, 100 μL of 1:2000 diluted of HRP conjugated anti-mouse IgG antibody (Cell Signaling, MA) was added. After incubation for 90 minutes, this antibody was discarded and the plate was washed 8 times with 0.05% Tween20/PBS. Phosphorylated ERK2 was then visualized by peroxidase reaction, and read at 450 nm. FIG. 2A is a table depicting results from MEK1 assays.
# [3] = test system: human hematologic cancer cell lines; assay: Antiproliferative effects in hematologic cancer cell lines (MTT assay); format: cell-based; details: cell lines derived from leukemia, or B-cells such non-Hodgkin's lymphoma, 96 h
# Experimental: A study was carried out to investigate anticancer activity of compounds 091 and 106 in a panel of human hematologic cancer cell lines in vitro. Antiproliferative effects of compounds 091 and 106 were evaluated in 7 human cancer cell lines representing several different cancer types of hematologic malignancy. […] Cell growth was assessed using the MTT assay.
# MV-4-11 AML cells = assay: MV-4-11 cell proliferation assay (CellTiter-Glo); format: cell-based, human; details: 96 h
# Experimental: A study was carried out to investigate the anticancer activity of compound 106 in a FLT-3 mutated (AML) cell line in vitro. The antiproliferative effects of compound 106 were determined in a cell proliferation assay using MV-4-11 AML cells. […] Luminescence was read on the EnVision 2102 Multilabel Counter (Perkin-Elmer/Wallac, Waltham, Mass.). The software, Graphpad Prism (ver. 4, San Diego, Calif.) was used for determination of IC50 values. The raw value for the untreated control represents an average from 4 wells.
# [4] = test system: LOX human melanoma xenografts; assay: In vivo antitumor activity in LOX xenografts; set-up: species or system mice
# Experimental: A study was carried out to investigate anticancer activity of compounds 091 and 106 in human LOX BRAF mutated melanoma xenografts. The compounds were evaluated against subcutaneous-implanted LOX human melanoma xenografts in female athymic mice.
# (§1) The human melanoma cell line, LOX which has B-RAF (V600E) mutation was transplanted subcutaneously into female nude mice. The experiment consisted of 8 mice per group on the first day of treatment. Compounds were independently administered intravenously for two weekly rounds of five daily injections (q1d×5) with a two-day rest period between the rounds. Compounds were administered in a vehicle volume of 0.1 mL/10 g of body weight.
# (§2) The general health of the mice was monitored daily. Tumor dimensions and body weights were recorded twice a week starting on the first day of treatment. Tumor weights were calculated using the equation (l×w^2)/2, where 1 and w refer to the larger and smaller dimensions collected at each measurement. When the mean tumor volume reached 128 mm^3, vehicle (cremophor:ethanol:5% glucose; 1:1:8) or one of the test compounds (10, 20, 30, or 40 mg/kg) was administered to mice (8/group).
# [5] = test system: Colo205 human colon cancer xenografts; assay: In vivo antitumor activity in Colo205 xenografts; set-up: species or system mice; details: similar study with a different dosing schedule
# Experimental: A study was carried out to investigate anticancer activity of compounds 091 and 106 in human Colo205 BRAF mutated colon cancer xenografts. The compounds were evaluated against subcutaneous-implanted Colo205 human colon cancer xenografts in female athymic mice.
# as §1, with “colon cancer” for “melanoma”, “Colo205” for “LOX”, “6” for “8”, “The compound was” for “Compounds were independently”, “Compound 091 was” for “Compounds were”
# as §2, with “140” for “128”, “or” for “or one of”, “compound (30” for “compounds (10, 20, 30, or 40”, “(6/group).” for “(8/group).”
# Flt-3 receptor = assay: Phosphorylation of Flt-3 receptor in MV-4-11 cells (immunoblot); format: cell-based, human; details: 24 h
# Experimental: A study was carried out to investigate the ability of compound 106 to inhibit phosphorylation of Flt-3 receptor in a FLT3-mutated (AML) cell line in vitro. MV-4-11 human acute myeloid leukemia (AML) cells (Catalog #CRL-9591, ATCC, Rockville, Md.), which carry an activation mutation of Flt-3, were plated into a […] flasks and incubated for 1 day. Then, compound 106 at concentrations of 0.1 nmol/L-300 nmol/L (or culture medium) were added to each flask and cultured for 24 h. The control dish received cultured medium alone. Cells lysates were prepared using ice cold lysis buffer. In order to detect phospho-Flt-3 protein, MV-4-11 cell lysate proteins were subjected to SDS-PAGE under reducing conditions and immunoblotted with an antibody against phospho-Flt-3 antibody (Catalog #3464, Cell Signaling Technology, Danvers, Mass.). Western blots were probed with secondary IRDye antibodies (LI-COR, Inc., Lincoln, Nebr.). Blotted proteins were visualized using the Odyssey infrared imaging system (LI-COR, Inc., Lincoln, Nebr.). Anti-actin antibody (Catalog #sc-8432, Santa Cruz Biotechnologies, Inc., Santa Cruz, Calif.) was used as a loading control.
smiles,measurement,setting,value
COc1cc(O)c2c(c1)/C=C/C[C@H](O)[C@H](O)C(=O)/C=C\C[C@H](C)OC2=O [Compound F152],inhibition of MEK,Map/Erk kinase (MEK),inhibit
"CCc1c2c(nc3ccc(O)cc13)-c1cc3c(c(=O)n1C2)COC(=O)[C@]3(O)CC [SN-38, reference compound]",pIC50,"[1]; read-out: IC50 for cell growth inhibition in combination setting, SN-38 with 1 μM of compound 091 or compound 106, 96 h",7.79
same,pIC50,"[1]; read-out: IC50 for cell growth inhibition, SN-38 alone, 96 h",7.08
CCNc1cc(O)c2c(c1)/C=C/C[C@H](O)[C@H](O)C(=O)/C=C\[C@@H](C)[C@H](C)OC2=O [Compound 106],"cell growth inhibition, concentration range of sensitivity",[2],low-nM or sub-μM
same,MEK1 inhibitory activity,MEK1,low nM activity
same,sensitivity of cell growth,[3],sensitive
same,"effect on PANC-1 cancer cell growth, compound alone","[1]; 1 μM alone, separate experiments (data not shown)",did not affect
same,"IC50, antiproliferative activity",MV-4-11 AML cells,low-nmol/L
same,mice tumor free at the end of study,[4]; 10 mg/kg,5 out of 8
same,mice tumor free at the end of study,[4]; 20 mg/kg,8 out of 8
same,mice tumor free at the end of study,[4]; 40 mg/kg,8 out of 8
same,anticancer activity,"[4]; three dosages, 10, 20, and 40 mg/kg/dose",statistically significant anticancer activity
same,tumor regression from the first day of treatment,[5],70%
same,constitutive phosphorylation of Flt-3 receptor,Flt-3 receptor; 10 nmol/L,completely inhibited
same,protein level of phospho-Flt-3,"Flt-3 receptor; 0.1-300 nmol/L, concentration dependent",decreased

# From patent US8937056B2, “Multikinase inhibitors for use in the treatment of cancer” (Eisai R&D Management Co., Ltd., priority 2007, dated 2015)
